From patent publication US20110008388A1, “PIGLET FEED RATIONS HAVING LOW LEVELS OF FERMENTABLE CARBOHYDRATES” (NOVUS INTERNATIONAL INC., priority 2007, published 2011)

Experiments:
nursery pigs [1] = assay: Example 4: organic trace minerals and antibiotics with GEM blend in low lactose diets, nursery pig performance (BW, ADG, ADFI, GF); format: in vivo; conditions: Phase I, 0 to 7 days post weaning; regardless of lactose level; P<0.07
Procedure: Forty-two pens of pigs with about 20-25 pigs/pen blocked by weight were used. Pig body weights were collected initially (day 0) and at the end of each phase (days 7 and 21 post weaning). Feed consumption was measured from days 0-7 (Phase I) and from days 8-21 (Phase II) post weaning. Growth rate was calculated as average daily gain (ADG), daily feed intake was calculated as average daily feed intake (ADFI) and feed efficiency was calculated as the ratio of gain:feed (GF).
Phase I was from day 0 to 7 post weaning and Phase II was from day 8 to 21 post weaning. Composition and analysis of the experimental diets used in Phase I are described in Tables 18 and 19, respectively. Composition and analysis of the experimental diets used in Phase II are described in Tables 20 and 21, respectively. Diets in treatments 1 and 6 contained the high lactose levels of 20% and 10% in Phase I and II, respectively. All other treatments had diets containing the low lactose levels of 5% and 2.5% in Phase I and II, respectively. Antibiotic, GEM blend and OTM treatments during the two phases were as follows:
Phase I (0 to 7 Days): • 1. High lactose (20%)+enteric antibiotic. • 2. Low lactose (5%)+enteric antibiotic. • 3. Low lactose (5%)+enteric antibiotic+GEM blend. • 4. Low lactose (5%)+enteric antibiotic+OTM. • 5. Low lactose (5%)+enteric antibiotic+OTM+GEM blend. • 6. […]

nursery pigs [2] = assay: Example 1: lactose level and acidifying agent in nursery pig diets, growth performance (BW, ADG, ADFI, GF); format: in vivo; conditions: for feed intake: Phase I; for average daily feed intake (ADFI): Phase II
Source text: The following study was designed to determine whether a feed supplement comprising an acidifying agent could counteract the negative effects of lower levels of lactose in nursery pigs. A two-phase feeding program, with and without an acidifying agent comprising 2-hydroxy-4-methylthiobutanoic acid, fumaric acid, and benzoic acid (i.e., as provided by ACTIVATE® DA, Novus Intl), was implemented with industry norms for energy, digestible amino acids, vitamins, and minerals. The two-phase feeding program introduced ingredients in a progressive way to gently enhance maturation of the gastrointestinal system, while at the same time supplying special ingredients that should encourage maximal growth performance. The pigs were fed a Phase I diet from weaning to 10 days post weaning, and a Phase II diet from days 11 to 21 post weaning. The levels of lactose were varied in each diet phase and each level of lactose was examined with and without the acidifying agent.
A total of approximately 840 commercial breed nursery pigs (TR-4X C22 PIC lines, PIC Intl., Franklin, Ky.) were blocked by weight and sex, and then placed into a pen containing about 20-22 pigs per pen. There were a total of 42 pens that were used for 7 replications/treatment with approximately equal numbers of pens per sex/treatment. Treatments were randomly assigned to pens within a room prior to treatment initiation. Each pen was accounted as an experimental unit. The animals were cared for according to standard site practices, which include daily observations, temperature monitoring, feeder observations, and waterer observations.
Diets were balanced to meet 60 TID Met & Cys:Lys. The ideal amino acid ratio of Thr, Tryp, Ile, and Val to Lys was maintained at a minimum of 65%, 16%, 55%, and 65%, respectively, based on the TID ideal amino acid profile for swine. Diets that included the acidifying agent used MHA (DL-methionine hydroxyl analog) to balance for the methionine source, while diets without the acidifying agent used DL-Met as a methionine source. All diets were balanced to have equivalent methionine activity and properly mixed according to the diet formulations presented in Table 1 and Table 2 for Phase I, and Table 4 and Table 5 for Phase II. Calculated analyses of the diets are presented in Tables 3 and 6 for Phase I and II, respectively.
The treatment arrangements were a 3×2 factorial arrangement with three levels of lactose with and without the acidifying agent (i.e., ACTIVATE® DA at a 0.5%). Diets were formulated to provide 5%, 10%, or 20% lactose equivalent during Phase I (0 to 10 days post weaning) and 2.5%, 5%, or 10% lactose equivalent during Phase II (11 to 21 days post weaning). The lactose equivalent was provided by […]-80® (80% lactose content; International Ingredient Corporation, St. Louis, Mo.). Fishmeal and SDPP were held constant across the diets, and corn and CWG were allowed to float to provide similar energy levels. All diets were supplemented with the enteric antibiotic carbodox (i.e., MECADOX®, Phibro Animal Health, Ridgefield Park, N.J.).
The animals were observed daily including weekends and holidays. Any abnormal observations or mortalities were recorded by pen with weight and date. The body weights of the pigs were collected initially and at the end of each phase. The feed intake was collected for each phase of growth. Feed offered was measured by weighing each amount of feed used for each pen. Feed refused was measured by weighing the amount of feed left in the feeder and any remainder that had previously been recorded as feed offered.
Data were analyzed by analysis of variance procedures appropriate for a randomized block design using the General Linear Models procedure of SAS. Differences of least squares means for treatments from control pigs were determined using a least square comparison.

Row | Compound | feed intake (nursery pigs [1]) [g/day] | feed intake (nursery pigs [2]; high level of lactose (20%)) [g/day] | feed intake (nursery pigs [2]; intermediate level of lactose (10%)) [g/day] | feed intake (nursery pigs [2]; lowest level of lactose (5%)) [g/day] | average daily feed intake (ADFI) (nursery pigs [2]; highest lactose level (10%)) [g/day] | average daily feed intake (ADFI) (nursery pigs [2]; intermediate lactose level (5%)) [g/day] | average daily feed intake (ADFI) (nursery pigs [2]; lowest lactose level ([…])) [g/day]
1 | COC(=O)N/N=C/c1c[n+]([O-])c2ccccc2[n+]1[O-] [enteric antibiotic, carbodox] | 179 | – | – | – | – | – | –
2 | OC[C@H]1O[C@@H](O[C@H]2[C@H](O)[C@@H](O)C(O)O[C@@H]2CO)[C@H](O)[C@@H](O)[C@H]1O (stereo partly shown) [lactose] | – | 146 | 150 | 132 | 408 | 400 | 384
